Experimental data published in patent US20210070748A1, “INHIBITORS OF BRUTONS TYROSINE KINASE” (Pharmacyclics LLC, priority 2015, published 2021).

Experiments:
Assay type in all cases: biochemical
TEC = molecular target: T1, TEC (Homo sapiens, UniProt P42680); test: Inhibition of a panel of kinases, in vitro HotSpot kinase assay: TEC; conditions: E compounds, Table 17
T1 sequence (P42680 1-631): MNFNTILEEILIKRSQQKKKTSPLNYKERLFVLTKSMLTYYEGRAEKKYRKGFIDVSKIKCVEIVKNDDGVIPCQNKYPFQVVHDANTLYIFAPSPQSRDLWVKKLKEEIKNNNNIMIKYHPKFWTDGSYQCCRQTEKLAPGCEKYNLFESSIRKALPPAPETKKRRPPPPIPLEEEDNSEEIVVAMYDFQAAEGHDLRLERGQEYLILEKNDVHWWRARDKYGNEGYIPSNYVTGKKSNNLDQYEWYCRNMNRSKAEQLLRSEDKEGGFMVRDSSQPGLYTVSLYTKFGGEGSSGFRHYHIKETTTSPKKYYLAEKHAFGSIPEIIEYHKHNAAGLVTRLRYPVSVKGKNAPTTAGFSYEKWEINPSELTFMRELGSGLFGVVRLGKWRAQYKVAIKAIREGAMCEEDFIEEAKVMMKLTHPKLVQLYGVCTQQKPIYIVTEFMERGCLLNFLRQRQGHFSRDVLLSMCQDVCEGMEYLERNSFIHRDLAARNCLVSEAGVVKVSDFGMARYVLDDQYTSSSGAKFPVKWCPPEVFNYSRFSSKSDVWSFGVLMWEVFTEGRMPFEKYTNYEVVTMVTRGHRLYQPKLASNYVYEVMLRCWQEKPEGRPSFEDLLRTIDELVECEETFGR
Method: (§1) The degree of inhibition of a panel of kinases is determined using the in vitro HotSpot kinase assay (purified enzymes, ^33P-ATP, an appropriate substrate and 1 μM ATP).

ITK = molecular target: T2, ITK (Homo sapiens, UniProt Q08881); test: Inhibition of a panel of kinases, in vitro HotSpot kinase assay: ITK; conditions: E compounds, Table 17
T2 sequence (Q08881 1-620): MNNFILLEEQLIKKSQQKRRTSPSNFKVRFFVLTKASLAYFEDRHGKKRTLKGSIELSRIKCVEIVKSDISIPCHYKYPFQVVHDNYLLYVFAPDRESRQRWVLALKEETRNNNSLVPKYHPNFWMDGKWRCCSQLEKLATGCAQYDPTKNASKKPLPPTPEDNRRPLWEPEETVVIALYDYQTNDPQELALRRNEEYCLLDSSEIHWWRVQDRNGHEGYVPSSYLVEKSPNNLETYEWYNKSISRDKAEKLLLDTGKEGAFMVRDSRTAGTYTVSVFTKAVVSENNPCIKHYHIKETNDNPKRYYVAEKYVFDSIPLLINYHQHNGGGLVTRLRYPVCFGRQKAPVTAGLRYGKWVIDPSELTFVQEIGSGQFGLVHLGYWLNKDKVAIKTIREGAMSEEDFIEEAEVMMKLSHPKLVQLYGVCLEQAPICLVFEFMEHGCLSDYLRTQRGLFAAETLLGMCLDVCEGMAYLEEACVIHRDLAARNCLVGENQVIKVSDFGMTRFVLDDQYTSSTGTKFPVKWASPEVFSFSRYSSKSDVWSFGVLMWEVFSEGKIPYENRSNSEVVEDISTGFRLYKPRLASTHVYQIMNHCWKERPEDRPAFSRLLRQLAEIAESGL
Method: as §1

BTK-WT = molecular target: T3, BTK-WT (Homo sapiens, UniProt Q06187); test: Btk in vitro inhibitory activity (one of Method A TR-FRET, Method B electrophoretic mobility shift, Method C radiometric filter binding); conditions: E compounds, Table 17; read-out: IC50 BTK-WT
T3 construct: purified from insect cells as a full-length construct containing an N-terminal 6X-His tag; His6 (N); made in house; host or cells: insect cells (baculovirus Sf21 in Method B)
T3 sequence (Q06187 whole entry): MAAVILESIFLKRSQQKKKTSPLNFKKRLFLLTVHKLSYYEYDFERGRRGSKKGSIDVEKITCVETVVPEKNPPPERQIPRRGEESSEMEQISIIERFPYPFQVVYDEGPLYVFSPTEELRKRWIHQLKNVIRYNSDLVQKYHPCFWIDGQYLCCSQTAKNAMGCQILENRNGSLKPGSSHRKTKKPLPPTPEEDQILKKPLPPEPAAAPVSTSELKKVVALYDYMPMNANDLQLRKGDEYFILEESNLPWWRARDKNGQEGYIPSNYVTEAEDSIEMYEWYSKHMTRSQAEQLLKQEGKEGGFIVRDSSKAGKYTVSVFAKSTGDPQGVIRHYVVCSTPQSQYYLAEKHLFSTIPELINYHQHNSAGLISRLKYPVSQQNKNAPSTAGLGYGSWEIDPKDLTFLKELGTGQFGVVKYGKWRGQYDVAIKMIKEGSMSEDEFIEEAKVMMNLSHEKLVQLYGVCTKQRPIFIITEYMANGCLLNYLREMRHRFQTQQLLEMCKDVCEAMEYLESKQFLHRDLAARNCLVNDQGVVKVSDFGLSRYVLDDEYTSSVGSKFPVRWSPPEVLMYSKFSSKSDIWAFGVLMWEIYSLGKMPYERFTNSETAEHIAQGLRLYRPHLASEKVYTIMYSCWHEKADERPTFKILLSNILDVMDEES

IC50 (TEC) | IC50 (ITK) | IC50 (BTK-WT) | Structure (SMILES)
≤ 10 nM | 10 to 100 nM | ≤ 10 nM | C=CC(=O)N1CCC[C@@H](Nc2nnc(C(N)=O)c(Nc3cccc(C#N)c3)n2)C1 [Example E-77, (R)-3-(1-acryloylpiperidin-3-ylamino)-5-(3-cyanophenylamino)-1,2,4-triazine-6-carboxamide]
≤ 10 nM | 10 to 100 nM | ≤ 10 nM | C=CC(=O)N1CCC[C@@H](Nc2nnc(C(N)=O)c(Nc3ccc(CN(C(=O)OCc4ccccc4)[C@@H](C)C(C)(C)C)cc3)n2)C1 [Example E-56, benzyl 4-(3-((R)-1-acryloylpiperidin-3-ylamino)-6-carbamoyl-1,2,4-triazin-5-ylamino)benzyl((S)-3,3-dimethylbutan-2-yl)carbamate]
100 to 1000 nM | 1000 to 10000 nM | 10 to 100 nM | C=CC(=O)NC[C@@H]1CCCN1c1nnc(C(N)=O)c(Nc2ccc(C(C)C)cc2)n1 [Example E-91, (S)-3-(2-(acrylamido-methyl)pyrrolidin-1-yl)-5-(4-isopropylphenyl-amino)-1,2,4-triazine-6-carboxamide]
≤ 10 nM | ≤ 10 nM | ≤ 10 nM | C=CC(=O)N1CCC[C@@H](Nc2nnc(C(N)=O)c(Nc3ccc(C(C)(C)C#N)cc3)n2)C1 [Example E-49, (R)-3-(1-acryloylpiperidin-3-ylamino)-5-(4-(2-cyanopropan-2-yl)phenylamino)-1,2,4-triazine-6-carboxamide]
≤ 10 nM | ≤ 10 nM | ≤ 10 nM | C=CC(=O)N1CC[C@@H](N(C)c2cnc(C(N)=O)c(Nc3ccc(C(O)(C(F)(F)F)C(F)(F)F)cc3)n2)C1 [Example E-120, (R)-5-((1-acryloylpyrrolidin-3-yl)(methyl)amino)-3-(4-(1,1,1,3,3,3-hexafluoro-2-hydroxypropan-2-yl)phenylamino)pyrazine-2-carboxamide]
≤ 10 nM | ≤ 10 nM | ≤ 10 nM | C=CC(=O)N1CCC[C@@H](Nc2nnc(C(N)=O)c(Nc3cnn(C)c3)n2)C1 [Example E-73, (R)-3-(1-acryloylpiperidin-3-ylamino)-5-(1-methyl-1H-pyrazol-4-ylamino)-1,2,4-triazine-6-carboxamide]
≤ 10 nM | 100 to 1000 nM | ≤ 10 nM | C=CC(=O)N1CCC[C@@H](Nc2nnc(C(N)=O)c(Nc3cncc(F)c3)n2)C1 [Example E-53, (R)-3-(1-acryloylpiperidin-3-ylamino)-5-(5-fluoropyridin-3-ylamino)-1,2,4-triazine-6-carboxamide]
≤ 10 nM | 10 to 100 nM | ≤ 10 nM | C=CC(=O)N1CCC[C@@H](Nc2nnc(C(N)=O)c(Nc3ccc(I)cc3)n2)C1 [Example E-50, (R)-3-(1-acryloylpiperidin-3-ylamino)-5-(4-iodophenylamino)-1,2,4-triazine-6-carboxamide]
≤ 10 nM | 100 to 1000 nM | ≤ 10 nM | C=CC(=O)N1CCC[C@@H](Nc2nnc(C(N)=O)c(Nc3cccc(C(=O)N4CCCCC4)c3)n2)C1 [Example E-87, (R)-3-(1-acryloylpiperidin-3-ylamino)-5-(3-(piperidine-1-carbonyl)phenylamino)-1,2,4-triazine-6-carboxamide]
≤ 10 nM | ≤ 10 nM | ≤ 10 nM | C=CC(=O)N1CC[C@@H](N(C)c2cnc(C(N)=O)c(Nc3ccc(N4CCN(C)CC4)cc3)n2)C1 [Example E-111, (R)-5-((1-acryloylpyrrolidin-3-yl)(methyl)amino)-3-(4-(4-methylpiperazin-1-yl)phenylamino)pyrazine-2-carboxamide]
≤ 10 nM | 10 to 100 nM | ≤ 10 nM | C=CC(=O)N1CC[C@@H](N(C)c2cnc(C(N)=O)c(Nc3cccc(-c4nccn4C)c3)n2)C1 [Example E-112, (R)-5-((1-acryloylpyrrolidin-3-yl)(methyl)amino)-3-(3-(1-methyl-1H-imidazol-2-yl)phenylamino)pyrazine-2-carboxamide]
≤ 10 nM | 100 to 1000 nM | ≤ 10 nM | C=CC(=O)N1CCC[C@@H](Nc2nnc(C(N)=O)c(Nc3cccc(C(=O)OCC)c3)n2)C1 [Example E-81, (R)-ethyl 3-(3-(1-acryloylpiperidin-3-ylamino)-6-carbamoyl-1,2,4-triazin-5-ylamino)benzoate]
≤ 10 nM | 10 to 100 nM | ≤ 10 nM | C=CC(=O)N1CCC[C@@H](Nc2nnc(C(N)=O)c(Nc3cccc(-c4ncco4)c3)n2)C1 [Example E-65, (R)-3-(1-acryloylpiperidin-3-ylamino)-5-(3-(oxazol-2-yl)phenylamino)-1,2,4-triazine-6-carboxamide]
≤ 10 nM | 10 to 100 nM | ≤ 10 nM | C=CC(=O)N1CCC[C@@H](Nc2nnc(C(N)=O)c(Nc3cccc(C(=O)NC4CC4)c3)n2)C1 [Example E-84, (R)-3-(1-acryloylpiperidin-3-ylamino)-5-(3-(cyclopropyl-carbamoyl)phenyl-amino)-1,2,4-triazine-6-carboxamide]
100 to 1000 nM | 100 to 1000 nM | 10 to 100 nM | Cc1cc(Nc2nc(N(C)[C@@H]3CCN(C(=O)c4ccc(C(O)(C(F)(F)F)C(F)(F)F)cc4)C3)nnc2C(N)=O)sn1 [Example E-13, (R)-3-((1-(4-(1,1,1,3,3,3-hexafluoro-2-hydroxypropan-2-yl)benzoyl)pyrrolidin-3-yl)(methyl)amino)-5-(3-methylisothiazol-5-ylamino)-1,2,4-triazine-6-carboxamide]
≤ 10 nM | 10 to 100 nM | ≤ 10 nM | C=CC(=O)N1CCC[C@@H](Nc2nnc(C(N)=O)c(Nc3ccc(-n4cncn4)cc3)n2)C1 [Example E-69, (R)-5-(4-(1H-1,2,4-triazol-1-yl)phenylamino)-3-(1-acryloylpiperidin-3-ylamino)-1,2,4-triazine-6-carboxamide]
≤ 10 nM | 10 to 100 nM | ≤ 10 nM | C=CC(=O)N1CCC[C@@H](Nc2nnc(C(N)=O)c(Nc3cccc(C(=O)N(C)C)c3)n2)C1 [Example E-83, (R)-3-(1-acryloylpiperidin-3-ylamino)-5-(3-(dimethylcarbamoyl)phenylamino)-1,2,4-triazine-6-carboxamide]
≤ 10 nM | ≤ 10 nM | ≤ 10 nM | C=CC(=O)N1CCC[C@@H](Nc2nnc(C(N)=O)c(Nc3ccc4ncsc4c3)n2)C1 [Example E-51, (R)-3-(1-acryloylpiperidin-3-ylamino)-5-(benzo[d]thiazol-6-ylamino)-1,2,4-triazine-6-carboxamide]
≤ 10 nM | 10 to 100 nM | ≤ 10 nM | C=CC(=O)N1CCC[C@@H](Nc2nnc(C(N)=O)c(Nc3ccc(S(F)(F)(F)(F)F)cc3)n2)C1 [Example E-78, (R)-3-(1-acryloylpiperidin-3-ylamino)-5-(4-(penta-fluorothio)phenyl-amino)-1,2,4-triazine-6-carboxamide]
10 to 100 nM | 100 to 1000 nM | ≤ 10 nM | C=CC(=O)NC[C@H]1CCCCN1c1nnc(C(N)=O)c(Nc2ccc(C(C)C)cc2)n1 [Example E-88, (R)-3-(2-(acrylamido-methyl)piperidin-1-yl)-5-(4-isopropyl-phenylamino)-1,2,4-triazine-6-carboxamide]
≤ 10 nM | ≤ 10 nM | ≤ 10 nM | C=CC(=O)N1CCC[C@@H](Nc2nnc(C(N)=O)c(Nc3ccc(Cn4cncn4)cc3)n2)C1 [Example E-52, (R)-5-(4-((1H-1,2,4-triazol-1-yl)methyl)phenyl-amino)-3-(1-acryloylpiperidin-3-ylamino)-1,2,4-triazine-6-carboxamide]
≤ 10 nM | 10 to 100 nM | ≤ 10 nM | C=CC(=O)N1CC[C@@H](N(C)c2cnc(C(N)=O)c(Nc3cccc(-n4nccn4)c3)n2)C1 [Example E-113, (R)-3-(3-(2H-1,2,3-triazol-2-yl)phenylamino)-5-((1-acryloylpyrrolidin-3-yl)(methyl)amino) pyrazine-2-carboxamide]
